{"source": "patent US20090197843A1", "about": "“Treatment of Prevention of Unscheduled Bleeding in Women on Progestogen Containing Medication” (PANTARHEI BIOSCIENCE B.V., priority 2004, published 2009)", "assay_type_in_all_cases": "in vivo", "key": {"[1]": {"test_system": "healthy postmenopausal women", "assay": "Clinical study: continuous combined HRT (estradiol/drosperinone) with or without captopril", "conditions": "15 mg captopril with continuous combined HRT (1 mg estradiol, 2 mg drosperinone), three periods of 28 days; vs HRT preparation alone", "procedure": "A clinical study is conducted in 50 healthy postmenopausal women, postmenopausal being defined as having had the last menstrual period at least 6 months before along with an increased FSH serum level. Two groups of 25 women who are not using any HRT are enrolled. All subjects receive a continuous combined HRT preparation containing 1 mg estradiol and 2 mg drosperinone for three periods of 28 days each. […] Subjects document any unscheduled vaginal bleeding (spotting, breakthrough bleeding) in a diary. Blood pressure is monitored intensively."}, "[2]": {"test_system": "healthy women of childbearing age", "assay": "Clinical study: low-dose oral contraceptive (30 μg ethinylestradiol/100 μg levonorgestrel) with or without enalapril", "conditions": "5 mg enalapril with oral contraceptive (30 μg ethinylestradiol, 100 μg levonorgestrel), 84 days; vs oral contraceptive alone", "procedure": "A clinical study is conducted in 50 healthy women of childbearing age. Two groups of 25 women who are not using oral contraception, ‘pill starters’, are enrolled. All subjects receive a low-dose oral contraceptive containing 30 μg ethinylestradiol and 100 μg levonorgestrel for 84 days. Twenty-five (25) subjects are randomized to additionally receive 5 mg enalapril as an ACE-inhibitor with the oral contraceptive during the entire study period. All subjects document any unscheduled vaginal bleeding (spotting, breakthrough bleeding) in a diary. Blood pressure is monitored intensively."}, "[3]": {"test_system": "healthy women of childbearing age", "assay": "Clinical study: low-dose oral contraceptive (20 μg ethinylestradiol/100 μg levonorgestrel) with or without irbesartan", "conditions": "75 mg irbesartan with oral contraceptive (20 μg ethinylestradiol, 100 μg levonorgestrel), 84 days; vs oral contraceptive alone", "procedure": "(§1) A clinical study is conducted in 40 healthy women of childbearing age. Two groups of 20 women who are not using oral contraception, ‘pill starters’, are enrolled. All subjects receive a low-dose oral contraceptive containing 20 μg ethinylestradiol and 100 μg levonorgestrel for 84 days. Twenty (20) subjects are randomized to additionally receive 75 mg irbesartan as an angiotensin II-receptor antagonist concomitantly with the oral contraceptive during the entire study period. All subjects document any unscheduled vaginal bleeding (spotting, breakthrough bleeding) in a diary. Blood pressure is monitored intensively."}, "[4]": {"test_system": "healthy women of childbearing age", "assay": "Clinical study: progestogen-only oral contraceptive (75 μg desogestrel) with or without irbesartan", "conditions": "50 mg irbesartan with progestogen-only oral contraceptive (75 μg desogestrel), 84 days; vs oral contraceptive alone", "procedure": "as §1, with “a progestogen-only” for “a low-dose”, “containing 75” for “containing 20”, “μg desogestrel” for “μg ethinylestradiol and 100 μg levonorgestrel”, “receive 50” for “receive 75”"}, "[5]": {"test_system": "healthy women of childbearing age", "assay": "Clinical study: contraceptive injections (150 mg medroxyprogesterone acetate) with or without irbesartan", "conditions": "daily 75 mg irbesartan, 6 months, with two injections of 150 mg medroxyprogesterone acetate; vs contraceptive injection alone", "procedure": "(§2) A clinical study is conducted in 40 healthy women of childbearing age. Two groups of 20 women are enrolled. All subjects receive two contraceptive injections containing 150 mg medroxyprogesterone acetate each with an interval of 3 months (13 weeks). Twenty (20) subjects are randomized to additionally receive daily 75 mg irbesartan as an angiotensin II-receptor antagonist during the entire study period of 6 months. All subjects document any unscheduled vaginal bleeding (spotting, breakthrough bleeding) in a diary. Blood pressure is monitored intensively."}, "[6]": {"test_system": "healthy women of childbearing age", "assay": "Clinical study: contraceptive implant (68 mg etonogestrel) with or without irbesartan", "conditions": "75 mg irbesartan, 6 months, with implant containing 68 mg etonogestrel; vs contraceptive implant alone", "procedure": "as §2, with “an implant” for “two contraceptive injections”, “68” for “150”, “etonogestrel.” for “medroxyprogesterone acetate each with an interval of 3 months (13 weeks).”, “receive” for “receive daily”, “antagonist concomitantly with the contraceptive implant” for “antagonist”"}, "[7]": {"test_system": "healthy postmenopausal women", "assay": "Clinical study: sequentially combined HRT (estradiol/dydrogesterone) with or without irbesartan", "conditions": "75 mg irbesartan with sequentially combined HRT (2 mg estradiol, 10 mg dydrogesterone), 3 cycles of 28 days; vs HRT preparation alone", "procedure": "A clinical study is conducted in 40 healthy postmenopausal women, postmenopausal being defined as having had the last menstrual period at least 6 months before along with an increased FSH serum level. Two groups of 20 women who are not using any HRT are enrolled. All subjects receive a sequentially combined HRT preparation for 3 cycles of 28 days each. One cycle comprises 14 days of 2 mg estradiol only followed by 14 days of 2 mg estradiol for 14 days combined with 10 mg dydrogesterone. Twenty (20) subjects are randomized to additionally receive 75 mg irbesartan as an angiotensin II-receptor antagonist concomitantly with the HRT preparation during the entire study period. Subjects document any unscheduled vaginal bleeding (spotting, breakthrough bleeding) in a diary. Blood pressure is monitored intensively."}, "[8]": {"test_system": "healthy postmenopausal women", "assay": "Clinical study: continuous combined HRT (estradiol/norethisterone acetate) with or without irbesartan", "conditions": "50 mg irbesartan with continuous combined HRT (2 mg estradiol, 1 mg norethisterone acetate), 84 days; vs HRT preparation alone", "procedure": "A clinical study is conducted in 40 healthy postmenopausal women, postmenopausal being defined as having had the last menstrual period at least 6 months before along with an increased FSH serum level. Two groups of 20 women who are not using any HRT are enrolled. All subjects receive a continuous combined HRT preparation containing 2 mg estradiol and 1 mg norethisterone acetate for 84 days. Twenty (20) subjects are randomized to additionally receive 50 mg irbesartan as an angiotensin II-receptor antagonist concomitantly with the HRT preparation during the entire study period. Subjects document any unscheduled vaginal bleeding (spotting, breakthrough bleeding) in a diary. Blood pressure is monitored intensively."}}, "data": [{"smiles": "C[C@H](CS)C(=O)N1CCC[C@H]1C(=O)O", "note": "[captopril]", "values": [{"measurement": "Efficacy between groups", "setting": "[1]", "value": "do not differ significantly"}, {"measurement": "episodes of unscheduled bleeding", "setting": "[1]", "value": "fewer episodes of unscheduled bleeding"}, {"measurement": "overall safety profile", "setting": "[1]", "value": "comparable to that of the group receiving the HRT preparation alone"}]}, {"smiles": "CCOC(=O)[C@H](CCc1ccccc1)N[C@@H](C)C(=O)N1CCC[C@H]1C(=O)O", "note": "[enalapril]", "values": [{"measurement": "blood pressure pattern between groups", "setting": "[2]", "value": "does not differ significantly"}, {"measurement": "episodes of unscheduled bleeding", "setting": "[2]", "value": "fewer episodes of unscheduled bleeding"}, {"measurement": "intensity of blood loss", "setting": "[2]", "value": "less intense blood loss, if any"}, {"measurement": "overall safety profile", "setting": "[2]", "value": "comparable to that of the group receiving the oral contraceptive alone"}]}, {"smiles": "CCCCC1=NC2(CCCC2)C(=O)N1Cc1ccc(-c2ccccc2-c2nnn[nH]2)cc1", "note": "[irbesartan]", "values": [{"measurement": "blood pressure pattern between groups", "setting": "[3]", "value": "does not differ significantly"}, {"measurement": "episodes of unscheduled bleeding", "setting": "[3]", "value": "fewer episodes of unscheduled bleeding"}, {"measurement": "intensity of blood loss", "setting": "[3]", "value": "less intense blood loss, if any"}, {"measurement": "overall safety profile", "setting": "[3]", "value": "comparable to that of the group receiving the oral contraceptive alone"}, {"measurement": "blood pressure pattern between groups", "setting": "[4]", "value": "does not differ significantly"}, {"measurement": "episodes of unscheduled bleeding", "setting": "[4]", "value": "fewer episodes of unscheduled bleeding"}, {"measurement": "intensity of blood loss", "setting": "[4]", "value": "less intense blood loss, if any"}, {"measurement": "overall safety profile", "setting": "[4]", "value": "comparable to that of the group receiving the oral contraceptive alone"}, {"measurement": "blood pressure pattern between groups", "setting": "[5]", "value": "does not differ significantly"}, {"measurement": "episodes of unscheduled bleeding", "setting": "[5]", "value": "fewer episodes of unscheduled bleeding"}, {"measurement": "intensity of blood loss", "setting": "[5]", "value": "less intense blood loss, if any"}, {"measurement": "overall safety profile", "setting": "[5]", "value": "comparable to that of the group receiving the contraceptive injection alone"}, {"measurement": "blood pressure pattern between groups", "setting": "[6]", "value": "does not differ significantly"}, {"measurement": "episodes of unscheduled bleeding", "setting": "[6]", "value": "fewer episodes of unscheduled bleeding"}, {"measurement": "intensity of blood loss", "setting": "[6]", "value": "less intense blood loss, if any"}, {"measurement": "overall safety profile", "setting": "[6]", "value": "comparable to that of the group receiving the contraceptive implant alone"}, {"measurement": "Efficacy between groups", "setting": "[7]", "value": "do not differ"}, {"measurement": "blood pressure pattern between groups", "setting": "[7]", "value": "do not differ"}, {"measurement": "episodes of unscheduled bleeding", "setting": "[7]", "value": "fewer episodes of unscheduled bleeding"}, {"measurement": "intensity of blood loss", "setting": "[7]", "value": "less intense blood loss, if any"}, {"measurement": "overall safety profile", "setting": "[7]", "value": "comparable to that of the group receiving the HRT preparation alone"}, {"measurement": "Efficacy between groups", "setting": "[8]", "value": "do not differ significantly"}, {"measurement": "blood pressure pattern between groups", "setting": "[8]", "value": "do not differ significantly"}, {"measurement": "episodes of unscheduled bleeding", "setting": "[8]", "value": "fewer episodes of unscheduled bleeding"}, {"measurement": "intensity of blood loss", "setting": "[8]", "value": "less intense blood loss, if any"}, {"measurement": "overall safety profile", "setting": "[8]", "value": "comparable to that of the group receiving the HRT preparation alone"}]}]}
